In the C3SDB collision cross section collection:
Values joined by “and” are separate entries in the source; they are usually repeats but may differ in a detail not shown here. Equal entries are not always repeated.

Conditions: [M+H-H2O]+; instrument: TW; calibrated with polyalanine and drug standards

collision cross section (N2) [Å²]	SMILES
132.6	NC[C@H](O)c1ccc(O)c(O)c1 [NOREPINEPHRINE]

Same assay, conditions: [M+H]+; instrument: TW; calibrated with polyalanine and drug standards

SMILES	collision cross section (N2)
NC(N)=NOCC[C@H](N)C(=O)O [CANAVANINE]	133.3 Å²
COc1ccc(-c2cc(=O)c3c(OC)c(OC)c(OC)c(OC)c3o2)cc1OC [NOBILETIN]	191.3 Å²
NCCCNCCSP(=O)(O)O [AMIFOSTINE]	146.9 Å²
CC(=O)O[C@H]1CC[C@@]2(C)C(C[C@@H](OC(C)=O)[C@@]3(C)C4=CC(=O)O[C@@H](c5ccoc5)[C@]4(C)CCC23)C1(C)C (stereo partly drawn) [3-DEOXO-3beta-ACETOXYDEOXYDIHYDROGEDUNIN]	219.7 Å²
O=c1cc(CO)occ1O [KOJIC ACID]	121.9 Å²
CC[C@@H](C)C(=O)O[C@H]1[C@H](O)[C@H]2[C@@H](CN3C[C@@H](C)CC[C@H]3[C@@]2(C)O)[C@@H]2C[C@]34O[C@]5(O)[C@@H](OC(=O)[C@](C)(O)[C@@H](C)O)CC[C@@]3(C)[C@@H]5[C@@H](OC(C)=O)[C@@H](OC(C)=O)[C@H]4[C@@]21O [PROTOVERATRINE B]	287 Å²
CC1(C)C2C[C@@H](O)[C@]3(C)C(CC[C@@]4(C)[C@H](c5ccoc5)OC(=O)[C@H]5O[C@]543)[C@@]2(C)[C@@H](O)C[C@H]1O (some centres undefined) [TRIDESACETOXYKHIVORIN]	201.5 Å²
COc1ccc2c(c1)OCc1c-2oc2cc(OC)ccc12 [DEHYDROVARIABILIN]	159 Å²
COc1cc(OC)cc(OC)c1 [1,3,5-TRIMETHOXYBENZENE]	130.6 Å²
COc1c(OC)c2occc2c2oc(=O)ccc12 [PIMPINELLIN]	146.4 Å²
CCOP(=S)(OCC)Oc1nc(Cl)c(Cl)cc1Cl [CHLORPYRIFOS]	201.7 Å²
Cc1cc(C)nc(NS(=O)(=O)c2ccc(N)cc2)n1 [SULFAMETHAZINE]	161.7 Å²
c1ccc(C2CN3CCSC3=N2)cc1 (centres undefined) [TETRAMIZOLE]	144 Å²
COC(=O)NC(=S)Nc1ccccc1NC(=S)NC(=O)OC [DIMETHYL 4,4-o-PHENYLENE-BIS (3-THIOPHANATE)]	173.3 Å²
NS(=O)(=O)c1cc2c(cc1Cl)NC=NS2(=O)=O [CHLOROTHIAZIDE]	161 Å²
c1ccc(-c2ccc(C(c3ccccc3)n3ccnc3)cc2)cc1 (centres undefined) [BIFONAZOLE]	184.8 Å²
CC(=O)OC1CN2CCC1CC2 (centres undefined) [ACECLIDINE]	136.2 Å²
CCN(CC)C(=S)SSC(=S)N(CC)CC [DISULFIRAM]	165.5 Å²
CC(=O)O[C@H]1C[C@@H](OC(C)=O)C(C)(C)C2CC(=O)[C@]3(C)C(CC[C@@]4(C)[C@H](C(=O)O)OC(=O)C5OC543)[C@]21C (some centres undefined) [DEACETOXY(7)-7-OXOKHIVORINIC ACID]	212.6 Å²
COc1cc(OC)c2c(=O)c(-c3ccccc3)c(C)oc2c1OC [2-METHYL-5,7,8-TRIMETHOXYISOFLAVONE]	173.6 Å²
CC[C@@H](C)C(=O)O[C@H]1[C@H](O)[C@H]2[C@@H](CN3C[C@@H](C)CC[C@H]3[C@@]2(C)O)[C@@H]2C[C@]34O[C@]5(O)[C@@H](OC(=O)[C@@](C)(O)CC)CC[C@@]3(C)[C@@H]5[C@@H](OC(C)=O)[C@@H](OC(C)=O)[C@H]4[C@@]21O [PROTOVERATRINE A]	285.2 Å²
Oc1c(Cl)cc(Cl)c2cccnc12 [CHLOROXINE]	134.3 Å²
NC1=NCCN1CC(=O)O [CYCLOCREATINE]	124.3 Å²
CN(C(=O)CN(CCO)CC(=O)N(C)C(C)(C)Cc1ccccc1)C(C)(C)Cc1ccccc1 [OXETHAZAINE]	213.7 Å²
CN1CCN(C(c2ccccc2)c2ccccc2)CC1 [CYCLIZINE]	164.8 Å²

The next lines start with the values.

collision cross section (N2)	SMILES
187 Å²	CC[C@@]1(O)C(=O)OCc2c1cc1n(c2=O)Cc2cc3cc(O)ccc3nc2-1 [10-HYDROXYCAMPTOTHECIN]
164.6 Å²	COc1ccc(-c2coc3cc(O)ccc3c2=O)c(OC)c1 [2'-METHOXYFORMONETIN]
156.5 Å²	Cc1c(NC(C)C)c(=O)n(-c2ccccc2)n1C [RAMIFENAZONE]
152.6 Å²	CCOc1ccc2c(c1)C(C)=CC(C)(C)N2 [ETHOXYQUIN]
188.7 Å²	CN1CC(=O)N2[C@H](c3ccc4c(c3)OCO4)c3[nH]c4ccccc4c3C[C@@H]2C1=O [TADALAFIL]
210.8 Å²	C[C@H](CCC(=O)O)[C@H]1CC[C@H]2[C@@H]3CC[C@@H]4C[C@H](O)CC[C@]4(C)[C@H]3CC[C@]12C [LITHOCHOLIC ACID]
161.7 Å²	COc1cc(O)c2c(=O)cc(C)oc2c1CC=C(C)C [HETEROPEUCENIN, METHYL ETHER]
161.9 Å²	CCCCNC(=O)NS(=O)(=O)c1ccc(C)cc1 [TOLBUTAMIDE]
158.6 Å²	Cn1c(=O)c2[nH]c(C3CCCC3)nc2n(C)c1=O [8-CYCLOPENTYLTHEOPHYLLINE]
130.2 Å²	O=C(O)c1cccnc1C(=O)O [QUINOLINIC ACID]
169.3 Å²	C[C@H](CCC(=O)O)[C@H]1CC[C@H]2[C@@H]3CC[C@@H]4CCCC[C@]4(C)[C@H]3CC[C@]12C [URSOCHOLANIC ACID]
158.3 Å²	CC(C)=CCC/C(C)=C/COc1ccc2ccc(=O)oc2c1 [AURAPTENE]
203.4 Å²	O=C1CC[C@]23/C=C/C(=O)NCCCCNCCCNC(=O)/C=C/c4ccc(c2c4)O[C@@H]3C1 [LUNARINE]
144 Å²	CC(C)Cc1ccc(C(C)C(=O)O)cc1 (centres undefined) [IBUPROFEN]
190.6 Å²	CCN1CCN(c2cc3c(cc2F)c(=O)c(C(=O)O)cn3C2CC2)CC1 [ENROFLOXACIN]
157.4 Å²	COc1ccc(CC(=O)c2ccc(O)cc2O)cc1 [ONONETIN]
171.4 Å²	O=C(/C=C/C=C/c1ccc2c(c1)OCO2)N1CCCCC1 [PIPERINE]
172.5 Å²	Cc1c(NC(=O)c2cccnc2)c(=O)n(-c2ccccc2)n1C [NIFENAZONE]
170.6 Å²	COc1ccc2c(c1)OCC(Cc1ccc(OC)c(O)c1)C2=O (centres undefined) [DEOXYSAPPANONE B 7,4'-DIMETHYL ETHER]

collision cross section (N2)	SMILES
184.8 Å²	COc1ccc(-c2cc(=O)c3c(OC(C)=O)cc(OC(C)=O)cc3o2)cc1 [ACACETIN DIACETATE]
204.6 Å²	CCCC1O[C@@H]2C[C@H]3[C@@H]4CCC5=CC(=O)C=C[C@]5(C)[C@H]4[C@@H](O)C[C@]3(C)[C@]2(C(=O)CO)O1 (some centres undefined) [BUDESONIDE]
193.8 Å²	CC(=O)OCC(=O)[C@H]1CC[C@H]2[C@@H]3CCC4=CC(=O)CC[C@]4(C)[C@H]3CC[C@]12C [DESOXYCORTICOSTERONE ACETATE]
139.1 Å²	COc1c2ccoc2cc2oc(C)cc(=O)c12 [VISNAGIN]
146.9 Å²	CC(=O)NS(=O)(=O)c1ccc(N)cc1 [SULFACETAMIDE]
167.6 Å²	COC(=O)[C@H](Cc1ccccc1)NC(=O)[C@@H](N)CC(=O)O [ASPARTAME]
151.3 Å²	O=C(Oc1ccccc1C(=O)O)c1ccccc1O [SALSALATE]
130 Å²	CC(C)=CC1C(C(=O)O)C1(C)C (centres undefined) [CHRYSANTHEMIC ACID]
152.9 Å²	COc1ccc(C(=O)c2ccc(O)cc2)c(O)c1O [2,3,4'-TRIHYDROXY-4-METHOXYBENZOPHENONE]
235.4 Å² and 228.3 Å²	COCC1=C(C(=O)OC(C)OC(=O)OC(C)C)N2C(=O)[C@@H](NC(=O)/C(=N\OC)c3csc(N)n3)[C@H]2SC1 (some centres undefined) [CEFPODOXIME PROXETIL]
141.7 Å²	CCOC(=O)Nc1nc2ccccc2[nH]1 [LOBENDAZOLE]
167.6 Å²	Nc1ncnc2c1ncn2[C@@H]1O[C@H](COP(=O)(O)O)[C@@H](O)[C@H]1O [ADENOSINE PHOSPHATE]
190.5 Å²	C=CC1=C(C(=O)O)N2C(=O)[C@@H](NC(=O)/C(=N\O)c3csc(N)n3)[C@H]2SC1 [CEFDINIR]
168.4 Å²	CC(=O)OCC(CCn1cnc2cnc(N)nc21)COC(C)=O [FAMCICLOVIR]
138.6 Å²	O=C(O)/C=C/C=C/c1ccc2c(c1)OCO2 [PIPERIC ACID]
159.9 Å²	O=C1C=CC2=C3c4cc(O)c(O)cc4CC3(O)COC2=C1 (centres undefined) [BRAZILEIN]
150 Å²	COc1ccc(C(=O)c2ccccc2O)c(O)c1 [DIOXYBENZONE]
194 Å²	CC(=O)OCC(=O)[C@@]1(O)CC[C@H]2[C@@H]3CCC4=CC(=O)C=C[C@]4(C)[C@H]3[C@@H](O)C[C@@]21C [PREDNISOLONE ACETATE]
171.2 Å²	CC(=O)Nc1ccc(S(=O)(=O)c2ccc(NC(C)=O)cc2)cc1 [ACEDAPSONE]

Same assay, conditions: [M+Na]+; instrument: TW; calibrated with polyalanine and drug standards

collision cross section (N2) [Å²]	SMILES
202.8	COC(=O)C[C@H]1C(C)(C)[C@@H](O)[C@@H]2CC3=C4CC(O)O[C@@H](c5ccoc5)[C@]4(C)CCC3[C@@]1(C)C2=O (stereo partly drawn) [3,16-DIDEOXYMEXICANOLIDE-3beta-DIOL]
183.2	COc1ccc2c(c1OC)OC[C@@H](c1ccc(OC)c(OC)c1OC)C2 [DUARTIN, DIMETHYL ETHER]
186.2	CCCCCCCCCCCC[C@@H](C(=O)O)[C@H](C)C(=O)O [ROCCELLIC ACID]

SMILES	collision cross section (N2) [Å²]
C=C(C)[C@@H]1[C@H]2OC(=O)[C@@H]1[C@]1(O)C[C@H]3O[C@]34C(=O)O[C@H]2[C@]14C [PICROTOXININ]	168.7
COC(C)(C)CCC[C@H](C)C/C=C/C(C)=C/C(=O)OC(C)C [METHOPRENE (S)]	187
